Laboratory results published in patent publication US10159636B2, “Cosmetic composition containing acetylated oligoglucuronans” (Sederma, S.A.S., priority 2008, dated 2018).
Marks after values point to notes of the source that are not given here.

What was measured:
[1] = molecular target: serum albumin incubated with fructose (Homo sapiens, UniProt P02768); assay: Anti-glycation efficacy: inhibition of AGE (FFI compounds) production, fluorescence; format: biochemical; conditions: 0.03%; serum albumin 2% + 100 mM fructose, pH 7.4, 50° C., 1 week; N=2
serum albumin incubated with fructose, sequence (P02768 25-609): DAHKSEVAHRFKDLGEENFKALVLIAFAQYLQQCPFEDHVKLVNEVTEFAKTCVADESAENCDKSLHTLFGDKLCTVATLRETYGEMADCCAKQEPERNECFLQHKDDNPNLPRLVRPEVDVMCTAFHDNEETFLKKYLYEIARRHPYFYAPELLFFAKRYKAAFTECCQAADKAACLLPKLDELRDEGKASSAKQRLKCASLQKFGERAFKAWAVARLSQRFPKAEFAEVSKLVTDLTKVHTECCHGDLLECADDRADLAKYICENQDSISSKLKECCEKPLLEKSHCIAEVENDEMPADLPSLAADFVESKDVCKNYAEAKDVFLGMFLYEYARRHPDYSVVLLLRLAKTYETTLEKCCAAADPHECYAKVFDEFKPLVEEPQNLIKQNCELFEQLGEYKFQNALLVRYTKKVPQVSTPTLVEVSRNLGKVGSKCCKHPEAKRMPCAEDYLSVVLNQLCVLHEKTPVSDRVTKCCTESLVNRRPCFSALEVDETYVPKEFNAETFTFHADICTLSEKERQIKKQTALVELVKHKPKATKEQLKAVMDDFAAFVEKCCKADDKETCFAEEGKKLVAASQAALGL
Method: Principle: Non-enzymatic glycation between a protein and a reducing sugar is a slow spontaneous reaction which can be accelerated by temperature. An in vitro study model consisting of serum albumin incubated with fructose for one week was used. Glycation is recorded from the formation of fluorescent compounds, generally pentosides or FFI (furoyl-furanyl-imidazoles).
Protocol: In our test, serum albumin (2%) and 100 mM fructose are incubated in a pH 7.4 phosphate buffer at 50° C. for 1 week. […] The glycation reference value (Control) for the glycation after 1 week is determined from the serum albumin and fructose incubation. The positive glycation inhibition Control is obtained by incubating in the presence of aminoguanidine 0.03% and the test incubations are performed in the presence of 9.1% acetylated oligoglucuronans at different concentrations.
Results: For each fluorescence value measured the percentage change is calculated compared to the Control. The results shown in the table below are the mean values from N=2 tests.

[2] = tested on: elastin synthesis by fibroblasts; assay: Assay of elastin synthesis by fibroblasts (sandwich ELISA of culture supernatants); format: cell-based, human
Method: Normal human fibroblasts are inseminated. After anchoring for 24 h, TGF-β1 and 9.1% acetylated oligoglucuronans are placed in contact with the cells for 72 h. The culture supematants are removed and the amount of elastin is quantified by sandwich ELISA.
TGF-β1 is used as the positive control for elastin synthesis.
(§1) Analysis of variance is performed on the data (treated cases compared to untreated cases). If variances are equal, a Student t test for paired series is then performed on the mean values.
Normal human fibroblasts are inseminated. After anchoring for 24 h, TGF-β1, oligoglucuronans I, oligoglucuronans II, oligoglucuronans IIII, glucuronic acid and galacturonic acid are placed in contact with the cells for 72 h. The culture supernatants are removed and the amount of elastin present is quantified by sandwich ELISA.
TGF-β1 is used as a positive control for elastin.

[3] = tested on: hyaluronic acid synthesis by keratinocytes; assay: Assay of hyaluronic acid synthesis by keratinocytes (sandwich ELISA); format: cell-based, human; conditions: for % Change/untreated cells (hyaluronic acid synthesis by keratinocytes): 72 h
Method: Human keratinocytes are inseminated. After anchoring for 24 h, retinoic acid and 9.1% acetylated oligoglucuronans are placed in contact with the cells for 72 h. The culture supernatants are removed and the amount of hyaluronic acid is quantified by sandwich ELISA.
Retinoic acid is used at the positive control for hyaluronic acid synthesis.
as §1
(§2) Human keratinocytes are inseminated into well plates. After anchoring for 24 h, retinoic acid, oligoglucuronans I, oligoglucuronans II, oligoglucuronans III, glucuronic acid and galacturonic acid are placed in contact with the cells for 72 h. The culture supernatants are removed and the amount of hyaluronic acid is quantified by sandwich ELISA.
Retinoic acid is used as a positive control of hyaluronic acid.

[4] = tested on: laminin synthesis by keratinocytes; assay: Assay of laminin synthesis by keratinocytes (sandwich ELISA); format: cell-based, human; conditions: for Conclusion (laminin by keratinocytes) / % Change/untreated cells (laminin by keratinocytes): Table 9; for % Change/untreated cells (laminin by keratinocytes): n = 5
Method: Human keratinocytes are inseminated into 24 well plates. After anchoring for 24 h, TGF-β1 and 9.1% acetylated oligoglucuronans are placed in contact with the cells for 72 h. The culture supernatants are removed and the amount of laminin is quantified by sandwich ELISA.
TGF-β1 is used as a positive control for laminin synthesis.
as §1
as §2, with “TGF-β1,” for “retinoic acid,”, “laminin” for “hyaluronic acid”

[5] = Table 7, Eq 0.04% oligoglucuronans I, 72 h, n = 5
[6] = Table 8, Eq 0.04% oligoglucuronans I, n = 5
[7] = Table 8, Eq 0.06% oligoglucuronans I, n = 5
[8] = Eq 0.04% oligoglucuronans 1, 72 h
[9] = Eq 0.06% oligoglucuronans 1, 72 h

| Compound | Conclusion (elastin synthesis by fibroblasts) ([2]; Table 7) | % Change/untreated cells (elastin synthesis by fibroblasts) [2, 5] | Conclusion (hyaluronic acid synthesis by keratinocytes) ([3]; Table 8) | % Change/untreated cells (hyaluronic acid synthesis by keratinocytes) [3, 6] | % Change/untreated cells (hyaluronic acid synthesis by keratinocytes) [3, 7] | Conclusion (laminin by keratinocytes) [4] | % Change/untreated cells (laminin by keratinocytes) [4, 8] | % Change/untreated cells (laminin by keratinocytes) [4, 9] | other results |
| --- | --- | --- | --- | --- | --- | --- | --- | --- | --- |
| N=C(N)NN [Aminoguanidine, aminoguanidine] | – | – | – | – | – | – | – | – | Reduction in AGE % compared to Control [1]: 67 +/− 2% |
| O=C[C@H](O)[C@@H](O)[C@@H](O)[C@H](O)C(=O)O [Galacturonic acid] | =0 | −1% | =0 | +7% | +12% | =0 | +1% | −4% | – |
| O=C[C@H](O)[C@@H](O)[C@H](O)[C@H](O)C(=O)O [Glucuronic acid] | =0 | +32% | =0 | +10% | +2% | =0 | −7% | −12% | – |
| CC1=C(/C=C/C(C)=C/C=C/C(C)=C/C(=O)O)C(C)(C)CCC1 [Retinoic acid] | – | – | – | – | – | – | – | – | % Change/untreated cells (hyaluronic acid synthesis by keratinocytes) ([3]; Table 2, 1 μM, N = 3): +144%*; % Change/untreated cells (hyaluronic acid synthesis by keratinocytes) ([3]; Table 8, 1 μM, n = 5): +136%* |
| TGF-β1: Positive control for elastin (fibroblast) and laminin (keratinocytes) | Positive | – | – | – | – | Positive | – | – | % Change/untreated cells (elastin synthesis by fibroblasts) ([2]; Table 1, 10 ng/mL, 72 h contact, N = 2): +122%*; % Change/untreated cells (elastin synthesis by fibroblasts) ([2]; Table 7, 10 ng/mL, 72 h, n = 5): +106%*; % Change/untreated cells (laminin synthesis by keratinocytes) ([4]; Table 3, 10 ng/mL, 72 h, N = 3): +291%*; % Change/untreated cells (laminin by keratinocytes) ([4]; 10 ng/mL, 72 h): +255%* |
